Results on two compounds are retold here after patent EP2832223A1, “HERBICIDAL COMPOSITION” (Ishihara Sangyo Kaisha, Ltd., priority 2012, dated 2013).

What is called inhibition is the share of the control response that was lost under treatment.

SMILES strings stand for the structures.

Common to all, as to format: in vivo
In assay [1] the test system is sunn-hemp (Crotalaria juncea L.). In words: Test Example 7: pot test, soil treatment, visual growth inhibition. The conditions noted are these: soil treatment, 28th day after treatment, read-out: Growth inhibition rate (%) of sunn-hemp Measured value. On the procedure: Upland field soil was put into a 1/300,000 ha pot, and seeds of sunn-hemp (Crotalaria juncea L.) were sown. On the next day, predetermined amounts of ONEHOPE NYUZAI (tradename), Click (tradename), Mikado (tradename) and a wettable powder containing bicyclopyrone prepared in accordance with a conventional formulation method were diluted with water (in an amount corresponding to 1,000 L/ha) and applied for soil treatment by a small sprayer.
On the 28th day after treatment, the state of growth of the sunn-hemp was visually observed to determine the growth inhibition rate (%). The growth inhibition rate (%) (measured value) and the growth inhibition rate (%) calculated in the same manner as in the above Test Example 1 are shown in Table 7.

Assay [2] deals with common cocklebur (Xanthium strumarium L.). In words: Test Example 12: pot test, foliar treatment, visual growth inhibition. The settings on record: foliar treatment at 4.2 to 4.3-leaf stage, 28th day after treatment, read-out: Growth inhibition rate (%) of common cocklebur Measured value. On the procedure:
Upland field soil was put into a 1/1,000,000 ha pot, and seeds of common cocklebur (Xanthium strumarium L.) were sown. When the common cocklebur reached 4.2 to 4.3-leaf stage, predetermined amounts of ONEHOPE NYUZAI (tradename), Click (tradename) and water dispersible granules containing flufenacet as an active ingredient (tradename: Cadou, manufactured by Bayer CropScience) were diluted with water (in an amount corresponding to 1,000 L/ha) and applied for foliar treatment by a small sprayer.
On the 28th day after treatment, the state of growth of the common cocklebur was visually observed to determine the growth inhibition rate (%). The growth inhibition rate (%) (measured value) and the growth inhibition rate (%) calculated in the same manner as in the above Test Example 1 are shown in Table 12.

Assay [3] has as its system velvetleaf (Abutilon theophrasti Medic.). The assay is described as follows: Test Example 14: pot test, soil and foliar treatment, visual growth inhibition. The settings on record: soil treatment and foliar treatment, 31st day after treatment, read-out: Growth inhibition rate (%) of velvetleaf Measured value. An excerpt: Upland field soil was put into a 1/1,000,000 ha pot, and seeds of velvetleaf (Abutilon theophrasti Medic.) were sown. When the velvetleaf reached 4.0 to 4.3-leaf stage, seeds of velvetleaf were further sown in the same pot assuming conditions such that weeds would later grow. On the next day, predetermined amounts of ONEHOPE NYUZAI (tradename), Click (tradename), Callisto (tradename), Mikado (tradename), a wettable powder containing bicyclopyrone as an active ingredient and Clio (tradename) were diluted with water in an amount corresponding to 300 L/ha and applied for soil treatment and for foliar treatment by a small sprayer.
On the 31 st day after treatment, the state of growth of the velvetleaf was visually observed to determine the growth inhibition rate (%). The growth inhibition rate (%) (measured value) and the growth inhibition rate (%) calculated in the same manner as in the above Test Example 1 are shown in Table 14.

Assay [4] relates to Japanese millet (Echinochloa utilis Ohwi et Yabuno). In words: Test Example 13: pot test, soil and foliar treatment, visual growth inhibition. The conditions noted are these: soil treatment and foliar treatment, 28th day after treatment, read-out: Growth inhibition rate (%) of Japanese millet Measured value. On the procedure:
Upland field soil was put into a 1/1,000,000 ha pot, and seeds of Japanese millet (Echinochloa utilis Ohwi et Yabuno) were sown. When the Japanese millet reached 3.8 to 4.0-leaf stage, seeds of Japanese millet were further sown in the same pot. On the next day, predetermined amounts of ONEHOPE NYUZAI (tradename), Click (tradename) and a wettable powder containing bicyclopyrone prepared in accordance with a conventional formulation method were diluted with water (in an amount corresponding to 1,000 L/ha) and applied for soil treatment and for foliar treatment by a small sprayer.
On the 28th day after treatment, the state of growth of the Japanese millet was visually observed to determine the growth inhibition rate (%). The growth inhibition rate (%) (measured value) and the growth inhibition rate (%) calculated in the same manner as in the above Test Example 1 are shown in Table 13.

Assay [5] deals with green foxtail (Setaria viridis (L.) P.Beauv.). The assay is described as follows: Test Example 3: pot test, soil treatment, visual growth inhibition. The settings on record: soil treatment, 27th day after treatment, read-out: Growth inhibition rate (%) of green foxtail Measured value. On the procedure:
Upland field soil was put into a 1/1,000,000 ha pot, and seeds of green foxtail (Setaria viridis (L.) P.Beauv.) were sown. On the next day, predetermined amounts of ONEHOPE NYUZAI (tradename), Click (tradename) and SC formulation containing sulcotrione as an active ingredient (tradename: Mikado, manufactured by Bayer CropScience) were diluted with water (in an amount corresponding to 1,000 L/ha) and applied for soil treatment by a small sprayer.
On the 27th day after treatment, the state of growth of the green foxtail was visually observed to determine the growth inhibition rate (%). The growth inhibition rate (%) (measured value) and the growth inhibition rate (%) calculated in the same manner as in the above Test Example 1 are shown in Table 3.

Assay [6] relates to Japanese millet (Echinochloa utilis Ohwi et Yabuno). The assay is described as follows: Test Example 9: pot test, soil treatment, visual growth inhibition. The settings on record: soil treatment, 28th day after treatment, read-out: Growth inhibition rate (%) of Japanese millet Measured value. On the procedure: Upland field soil was put into a 1/300,000 ha pot, and seeds of Japanese millet (Echinochloa utilis Ohwi et Yabuno) were sown. On the next day, predetermined amounts of ONEHOPE NYUZAI (tradename), Click (tradename), Mikado (tradename) and a wettable powder containing bicyclopyrone prepared in accordance with a conventional formulation method were diluted with water (in an amount corresponding to 1,000 L/ha) and applied for soil treatment by a small sprayer.
On the 28th day after treatment, the state of growth of the Japanese millet was visually observed to determine the growth inhibition rate (%). The growth inhibition rate (%) (measured value) and the growth inhibition rate (%) calculated in the same manner as in the above Test Example 1 are shown in Table 9.

For assay [7], the system named is wild oat (Avena fatua L.). In words: Test Example 2: pot test, soil treatment, visual growth inhibition. The conditions noted are these: 28th day after treatment, read-out: Growth inhibition rate (%) of wild oat Measured value. On the procedure: Upland field soil was put into a 1/500,000 ha pot, and seeds of wild oat (Avena fatua L.) were sown. On the next day, predetermined amounts of ONEHOPE NYUZAI (tradename), Click (tradename) and SC formulation containing mesotrione as an active ingredient (tradename: Callisto, manufactured by Syngenta) were diluted with water (in an amount corresponding to 1,000 L/ha) and applied for soil treatment by a small sprayer.
On the 28th day after treatment, the state of growth of the wild oat was visually observed to determine the growth inhibition rate (%). The growth inhibition rate (%) (measured value) and the growth inhibition rate (%) calculated in the same manner as in the above Test Example 1 are shown in Table 2.

Turning to `COc1cc(OC)nc(NC(=O)NS(=O)(=O)c2ncccc2C(=O)N(C)C)n1` [Nicosulfuron, 2-(4,6-dimethoxypyrimidin-2-ylcarbamoylsulfamoyl)-N,N-dimethylnicotinamide], the inhibition at 100 g/ha in assay [1] (100 g/ha) turned out to be 40%. For the same compound, the inhibition at 15 g/ha in assay [2] (15 g/ha) was 80%; in assay [4] (15 g/ha), 55%. The inhibition at 20 g/ha in assay [3] (20 g/ha) came to 3%. In addition, the inhibition at 60 g/ha in assay [3] (60 g/ha) worked out at 11%. Also, the values for the inhibition at 30 g/ha in assay [5] (30 g/ha) and in assay [7] (30 g/ha) were 60% and 70%, respectively. Moreover, the inhibition at 10 g/ha in assay [6] (10 g/ha) stood at 0%.

Regarding `CCNc1nc(Cl)nc(NC(C)(C)C)n1` [Terbuthylazine, N^2-tert-butyl-6-chloro-N^4-ethyl-1,3,5-triazine-2,4-diamine], the inhibition at 200 g/ha in assay [1] (200 g/ha) came to 30%. Moreover, the results for the inhibition at 250 g/ha in assay [2] (250 g/ha) and in assay [4] (250 g/ha) were 30% and 0%, respectively. In addition, the inhibition at 400 g/ha in assay [3] (400 g/ha) came to 0%. In assay [3] (1200 g/ha), the inhibition at 1200 g/ha was 0%. Moreover, the inhibition at 500 g/ha turned out to be 18% in assay [5] (500 g/ha) and 60% in assay [7] (500 g/ha). The inhibition at 2000 g/ha in assay [6] (2000 g/ha) came out at 65%.
